Where two headings read alike, the source gives them in different places. Each block holds one molecule with its values, some of them ahead of it.
Key:
[1] = Behavior of compound A in blood flow: blood and urine samples determined by electronic spin resonance after the administration; details: for clearance (in words) / excretion from the kidney: dog, in vivo
[2] = tested on: circumflex branch of the left coronary artery; assay: Comparative Example 1: blood flow after administration of compound A reduced with ascorbic acid; assay type: in vivo, mongrel dogs
Method: The operation of Example 4 was conducted by administering the compound A wherefrom the N-oxyl radical was inactivated only after reducing with ascorbic acid. […] It is therefore apparent that the pharmacological action was due to the radical in the molecule and that the compounds of the present invention are the pharmaceuticals of a new type.

[3] = tested on: ring samples of the circumflex branch (coronary artery); assay: In vitro test: relaxation of ring samples of the circumflex branch precontracted by prostaglandin F2α (isometric tension); parameters: species or system mongrel adult dogs; details: for EC50: Canis lupus familiaris, read-out: ED50 value expressed in terms of a minus logarithm of the administered concentration, endothelium absent (converted)
Method: After an anesthetization of the mongrel adult dogs, the extracted ring samples (outer diameter: about 2 mm) of the circumflex branch were prepared, hung in a chamber filled with 3 ml of a Krebs buffer which was oxidated (with 95% oxygen and 5% […]), balanced with an initial tension of 2 g and subjected to a precontraction by prostaglandin F2α (concentration in the chamber: 2 μM).
To this was added the compound A on an accumulated manner whereby its concentration in the chamber became from 1 μM to 1 mM and the resulting changes in the isometric tension were measured using a tranducer (manufactured by Minebea) and recorded in a pen recorder (SR6211 manufactured by Graphtec). Incidentally, the changes in the tension were evaluated on a basis that the precontraction by prostaglandin F2α was 100%. In some of the samples, the endothelium was exfoliated (confirmed by a disappearance of the relaxation to 1 μM of acetylcholine) and, furthermore, they were subjected to a pretreatment with Methylene Blue, an inhibitor for a soluble guanylate cyclase, (concentration in the chamber: 10 μM; administered 30 minutes before) whereby the effect was investigated.
Therefore, it is supposed that the compounds of the present invention activated the guanylate cyclase on a continued basis whereby the blood vessel was continuously relaxed.

[4] = tested on: circumflex branch of the left coronary artery; assay: Effect of various pharmaceuticals on coronary blood flow increase by administration of compound A; assay type: in vivo, mongrel adult dogs; details: 1.0 mM in artery
Method: The compound A was administered for four minutes, by the same manner as in Example 6, to a control group, to a group (LNAME-treated group) which was pretreated with a methyl ester of NG-nitro-L-arginine which was an inhibitor for the production of nitrogen monoxide caused by endothelium (by administering to the coronary artery at the dose of 200 μM for six minutes), to a group (8PT-treated group) which was pretreated with 8-phenyltheophylline which was an adenosnine antagonist (by administering to the coronary artery at the dose of 30 ng/kg/minute) an a group (autonomic nerve blocking group) which was pretreated with a pharmacological autonomic blocking agent (by an intravenous administration of 0.1 mg/kg of atropine, 1 mg/kg of propranolol and 2 mg/kg of phentolamine) to make the concentration of the compound A in the coronary artery 1.0 mM whereby the results were compared.

[5] = tested on: circumflex branch of the left coronary artery; assay: Test on the relaxation of coronary arteries: coronary blood flow and blood flow status (haemodynamics) in anesthetized open-chest dogs, intracoronary administration; assay type: in vivo, mongrel adult dogs; details: for Blood Flow at Rotation Branch: 4 min
Method: Twenty mongrel adult dogs were anesthetized with 30 mg/kg pentobarbital, their breasts were opened under an artificial respiration and heparin (3,000 IU/kg; each 1,000 IU/mg administered intravenously every 30 minutes thereafe) and aspirin (17 mg/kg) were administered. Then a cannula was inserted near the circumflex branch of the left coronary artery and a perfusion was conducted by means of a bypath from the whole left carotid artery. Coronary blood flow was measured, by an electromagnetic blood flowmeter (MFV-3200 manufactured by Nippon Koden) via a probe for measuring the blood flow (manufactured by Nippon Koden) located at the center of the bypath while the artery pressure and the left cardiac pressure were measured at an underarm artery and by means of a catheter inserted from the apex, respectively.

- clearance (in words) [1]: very prompt
- excretion from the kidney [1]: rapidly excreted from the kidney
Compound: CC1(C)N=C(c2ccc(C(=O)O)cc2)N(O)C1(C)C
- blood flow after the administration ([2]; 1.0 mM (FIG. 3), before the administration 22.4 ml/minute): 22.8 mL/min
- pharmacological action (in words) ([2]; after reducing with ascorbic acid): completely disappeared
- change in the blood flow (in words) ([2]; before vs after the administration, FIG. 3): no changes in the blood flow

Compound: CC1(C)N=C(c2ccc(C(=O)O)cc2)N([O])C1(C)C [Compound A]
- reduction in blood (stability of N-oxyl radical) ([1]; by ascorbic acid, etc. in blood): quickly reduced by ascorbic acid, etc. in blood
- clearance (in words) [1]: very prompt
- excretion from the kidney [1]: rapidly excreted from the kidney
- total amount of compound A remaining in the blood ([1]; one minute after the administration): about 0.3%
- influence of the endothelium on coronary artery relaxation (in words) ([3]; 1 μM to 1 mM, with vs without endothelium, FIG. 4): stronger than that in the absence of the endothelium
- EC50 ([3]; no Methylene Blue): 10 µM
- EC50 ([3]; with Methylene Blue 10 μM, 30 minutes before, p<0.01): 79.4 µM
- % Increase of blood flow in rotary branch ([4]; 8PT-treated group): 120 ± 10%
- Blood Flow in Rotary Branch, after administration of Compd A ([4]; 8PT-treated group, before 23.1 ± 2.7): 51.6 ± 5.8 mL/min
- influence of pretreatments on the action of the compound A (in words) ([4]; LNAME, 8-phenyltheophylline, autonomic blockade): none of the pharmaceuticals affected on the action of the compound A
- % Increase of blood flow in rotary branch ([4]; LNAME-treated group): 155 ± 28%
- Blood Flow in Rotary Branch, after administration of Compd A ([4]; LNAME-treated group, before 26.1 ± 2.7): 67.0 ± 11.5 mL/min
- % Increase of blood flow in rotary branch ([4]; autonomic nerve blocked group): 137 ± 56%
- Blood Flow in Rotary Branch, after administration of Compd A ([4]; autonomic nerve blocked group, before 19.5 ± 3.3): 49.3 ± 18.5 mL/min
- % Increase of blood flow in rotary branch ([4]; control group): 164 ± 31%
- Blood Flow in Rotary Branch, after administration of Compd A ([4]; control group, before 32.0 ± 2.1): 84.9 ± 13.7 mL/min
- Av. Blood Pressure ([5]; 0.1 mM in artery): 130 ± 8 mmHg
- Left Cardiac dp/dt ([5]; 0.1 mM in artery): 1132 ± 60 mmHg/sec
- Pres. at Final Stage of Left Cardiac Dilation ([5]; 0.1 mM in artery): 11 ± 2 mmHg
- Pulse Numbers ([5]; 0.1 mM in artery): 155 ± 8 min⁻¹
- Blood Flow at Rotation Branch ([5]; 0.1 mM in artery): 29.8 ± 3.6 mL/min
- Av. Blood Pressure ([5]; 0.3 mM in artery): 133 ± 8 mmHg
- Left Cardiac dp/dt ([5]; 0.3 mM in artery): 1210 ± 63 mmHg/sec
- Pres. at Final Stage of Left Cardiac Dilation ([5]; 0.3 mM in artery): 10 ± 2 mmHg
- Pulse Numbers ([5]; 0.3 mM in artery): 154 ± 8 min⁻¹
- Blood Flow at Rotation Branch ([5]; 0.3 mM in artery, p < 0.05 to the control): 41.5 ± 5.7 mL/min
- duration of effect on coronary blood flow after completion of the administration ([5]; 1 mM for four minutes): ≥ 30 min
- increase in coronary blood flow (fold) ([5]; 1 mM for four minutes): about three
- increasing rate of coronary blood flow ([5]; 1 mM for four minutes): ca. 200%
- Av. Blood Pressure ([5]; 1.0 mM in artery): 132 ± 7 mmHg
- Left Cardiac dp/dt ([5]; 1.0 mM in artery): 1241 ± 50 mmHg/sec
- Pres. at Final Stage of Left Cardiac Dilation ([5]; 1.0 mM in artery): 10 ± 2 mmHg
- Pulse Numbers ([5]; 1.0 mM in artery): 157 ± 8 min⁻¹
- Blood Flow at Rotation Branch ([5]; 1.0 mM in artery, p < 0.01 to the control, 0.1 mM and 0.3 mM): 89.7 ± 10.6 mL/min
- blood pressure (in words) ([5]; 0.1, 0.3 and 1.0 mM in artery): no change
- contracting power of the heart (in words) ([5]; 0.1, 0.3 and 1.0 mM in artery): rather improved
- left cardiac dp/dt (in words) ([5]; 0.1, 0.3 and 1.0 mM in artery): increasing tendency
- pressure at the final stage of the left cardiac dilation (in words) ([5]; 0.1, 0.3 and 1.0 mM in artery): no change
- pulse numbers (in words) ([5]; 0.1, 0.3 and 1.0 mM in artery): no change
- coronary blood flow (in words) ([5]; 0.1, 0.3 and 1.0 mM in artery, FIG. 2): significant increase in the coronary blood flow
- side effect (in words) ([5]; intracoronary administration): no side effect was noted

Compound: CN(C)c1ccc2nc3ccc(=[N+](C)C)cc-3sc2c1 [Methylene Blue, reference compound]
- inhibition of the coronary artery relaxing action of compound A (in words) ([3]; endothelium absent, 10 μM, 30 minutes before): found to inhibit that

Source: patent publication US5536744A, “Imidazolinoxyl derivatives” (Dojindo Laboratories, priority 1993, dated 1996)
